Values after ≈ are worked out from the molar mass of the structure shown. Values belong to the molecule of their own block, whether it stands above or below them.
Tests used:
[1] = tested on: rabbit articular chondrocytes (IL-1-induced neutral protease release); experiment: Inhibition of IL-1-induced release of neutral protease from rabbit articular chondrocytes; assay type: cell-based, rabbit (Male New Zealand White); conditions: Oryctolagus cuniculus, Chondrocyte, human IL-1 stimulated, 24 h
Method: The ability of the compounds of the invention to inhibit interleukin 1 is measured by the ability of the test compounds to inhibit the IL-1-induced release of neutral protease from rabbit articular chondrocytes.
Male New Zealand White rabbits are anesthetized with 50 mg/kg of ketamine (i.m.) and killed by an intracardiac injection of 3 mls. of Nembutal. The knee joints of both legs are resected and the articular surfaces are exposed. Cartilage slices are obtained using a scalpel and are placed in a tissue culture dish (100 mm diameter) containing 10 mls of Hank's balanced salt solution (HBSS). The chondrocytes within the cartilage slices are then liberated by a series of enzyme digestions. The slices are incubated for 10 minutes at 37° C. in 0.05% hyaluronidase (Sigma H-3884), rinsed with HBSS and incubated with 0.2% trypsin (Sigma T-2395) for 10 minutes at 37° C. The slices are rinsed again and incubated for 10 minutes at 37° C. with 1.2% collagenase (Sigma C-5138). The slices are then rinsed again with HBSS and resuspended in 10 ml of Ham's F-12 medium containing 10% fetal bovine calf serum (FCS) and 0.2 % collagenase and incubated overnight at 37° C. in a 5% CO2 incubator. The next day, the medium containing the digested cartilage fragments and liberated chondrocytes is transferred to a 15 ml centrifuge tube and the cells are collected by centrifugation and washed twice and resuspended in Ham's F-12 medium. The cells are then plated into 24-well tissue culture plates (2×10^5 cells/well) and incubated at 37° C. until confluent (usually 4-6 days).
The confluent chondrocytes are rinsed twice with serum-free Ham's F-12 medium and 1 ml is added to each well. Fifty μl of purified human IL 1 (100 Units/ml; Genzyme Corporation, Boston, Mass.) is then added to stimulate these cells to secrete neutral protease. To measure drug effects, the cells are treated with test compound 10 minutes prior to addition of IL-1. The standard screening dose is 10 μM. Twenty-four hours after IL-1 stimulation, supernatant fluids are collected and assayed for neutral protease activity.
The neutral protease activity of chondrocyte supernatant fluids is determined by their ability to degrade an insoluble protease substrate, azocoll (Sigma). Supernatants are treated for 10 minutes at room temperature with 350 μM p-aminophenylmurcuric acetate to activate the latent enzyme. Three hundred μl of supernatant is then mixed with 500μl of a 20 mg/ml suspension of azocoll and incubated at 37° C. for 18-24 hours with gentle rocking. The mixtures are centrifuged and the amount of substrate hydrolyzed is determined by measuring the absorbance of the supernatant at 520 nm.
Drug effects are calculated as the % change in enzyme activity (absorbance)by supernatants from drug-treated chondrocytes relative to enzyme activity of supernatants from vehicle-treated chondrocytes as follows: [formula]

[2] = tested on: rat limb bones (PTH-induced bone resorption); experiment: Bone resorption assay (45Ca release from rat limb bones), PTH-induced; assay type: cell-based, rat (Sprague-Dawley CD); conditions: 48 h; for IC50: Rattus norvegicus, read-out: Inhibition of Bone Resorption, PTH-Induced (IC50)
Method: (§1) The ability of the compounds of the invention to modify the process of bone resorption is evaluated in the bone resorption assay measuring ^45 Ca release from rat limb bones.
(§2) Limb bone preparation. Timed pregnant Sprague-Dawley CD® rats (Charles River) are administered 100 μCi ^45 CaCl2 (NEN calcium -45 NEZ-013) in 100 μl of 0.9% saline, subcutaneously, on day 18 of gestation. The rats are sacrificed the following day by CO2 asphyxiation. The fetuses are removed and the right forelimbs excised and placed in a Petri dish containing ice cold explant medium consisting of modified BGJb -Fitton Jackson media (custom formulation, Gibco No. 78-0088) adjusted to pH 7.3 to which 10 mM TES is added. The modified BGJb media is obtained without salts, glucose or bicarbonate and is supplemented before use with 0.1 mM MgCl2, 1.25 mM CaCl2, 5.3 mM KCl, 0.7 mM MgSO4, 130 mM NaCl, 1.0 mM NaH2 PO4, 1 g/L glucose, 50 mg/L Na acetate and 100 U/ml penicillin G. The medium is sterilized by passage through a 0.2 μ M filter (Nalge). Under a dissecting microscope, the bones are gently cleaned of adherent tissue and the cartilaginous ends removed. Incubation and drug treatment. The midshafts are placed, individually, on 3×3 mm squares of filter paper (Gelman GN-6 metricel filters; […] pore size) which rest on stainless steel screens in wells of 24-well culture plates containing 0.5 mL of preincubation medium. The preincubation medium is brought to 37° C. prior to transfer of bones. The preincubation medium consists of the modified BGJb medium (with salts and glucose as above), pH 7.3, containing 29 mM NaHCO3. After incubation for 18-24 hours at 37° C. in 5% CO2, the bones are transferred on their screen/filter paper supports to new plates containing, in a total volume of 0.5 mL/well at 37° C., the test compound diluted in preincubation medium supplemented with 15% heat inactivated horse serum (Gibco No. 230-6050), pH 7.3, with a bone resorption stimulating agent (e.g. parathyroid hormone [PTH] or interleukin-1 [IL-1]). For compounds that require nonaqueous solvents, dilutions are made from the appropriate stock solution with medium. In these instances, basal and bone resorption stimulated controls exposed to an equivalent concentration of the vehicle are included. An additional group of bones that have been subjected to boiling for 1 hour (kill control) are used to establish background, non cell mediated, exchange of ^45 Ca. The right ulna and radius from each fetus are used. Both bones are subjected to the same treatment and each treatment group consists of bones from 4 or more fetuses. Treatments are randomly assigned using a preclinical statistics program (PS-ALLOC). After a 48 hour incubation at 37° C. in 5% CO2, the bones are removed from the medium and extracted in 0.5 mL of 0.1N HCl for 1 or more days. Duplicate 150 μL aliquots of the incubation medium and the bone extract are analyzed for ^45 Ca radioactivity in 5 mL of liquid scintillation cocktail.
(§3) The percentage of bone ^45 Ca released into the medium is determined as follows: [formula] Results are normally expressed as the ratio of the percent ^45 Ca release of the experimental group versus the appropriate vehicle control, or as an IC50 value.

[3] = tested on: rat limb bones (IL-1 induced bone resorption); experiment: Bone resorption assay (45Ca release from rat limb bones), IL-1 induced; assay type: cell-based, rat (Sprague-Dawley CD); conditions: 48 h; for IC50: Rattus norvegicus, read-out: Inhibition of Bone Resorption, IL-1 Induced (IC50)
Method: as §1, §2, §3

Structure (SMILES): CS(=O)(=O)c1ccc(N2CCc3[nH]c4c(cnc5cc(Cl)ccc54)c3C2)cc1 [Example 1, 3-Chloro-8,9,10,11-tetrahydro-8-[4-(methylsulfonyl)phenyl]-7H-pyrido[3',4':4,5]pyrrolo[3,2-c]quinoline]
inhibition at 10 µM [1]: 40% | Inhibition of Bone Resorption, PTH-Induced (activity in words) [2]: Active | IC50 [2]: 0.633 µg/mL (≈ 1.54 µM) | Inhibition of Bone Resorption, IL-1 Induced (activity in words) [3]: Active | IC50 [3]: 6.84 µg/mL (≈ 16.6 µM)

Structure (SMILES): CCOC(=O)c1ccc(N2CCc3[nH]c4c(cnc5cc(Cl)ccc54)c3C2)cc1 [Example 2, 4-(3-Chloro-8,9,10,11-tetrahydro-7H-pyrido[3',4':4,5]-pyrrolo[3,2-c]quinolin-8-yl)benzoic acid ethyl ester]
inhibition at 10 µM [1]: 38% | Inhibition of Bone Resorption, PTH-Induced (activity in words) [2]: Active | IC50 [2]: 0.98 µg/mL (≈ 2.41 µM) | Inhibition of Bone Resorption, IL-1 Induced (activity in words) [3]: Active | IC50 [3]: 3.39 µg/mL (≈ 8.35 µM)

Structure (SMILES): N#Cc1ccc(N2CCc3[nH]c4c(cnc5cc(Cl)ccc54)c3C2)cc1 [Example 3, 4-(3-Chloro-8,9,10,11-tetrahydro-7H-pyrido[3',4':4,5]-pyrrolo[3,2-c]quinolin-8-yl)benzonitrile]
inhibition at 10 µM [1]: 22%

Structure (SMILES): O=C(c1cccs1)N1CCc2[nH]c3c(cnc4cc(Cl)ccc43)c2C1 [Example 4, 3-Chloro-8,9,10,11-tetrahydro-8-(2-thienylcarbonyl)-7H-pyrido[3',4':4,5]pyrrolo[3,2-c]quinoline]
inhibition at 0.1 µM ([1]; dose 0.1 μM): 14% | inhibition at 1 µM [1]: 20% | inhibition at 10 µM [1]: 64% | IC50 [1]: 7.3 µM | Inhibition of Bone Resorption, IL-1 Induced (activity in words) [3]: Active at <5 μg/ml

Structure (SMILES): N#Cc1ccc(C(=O)N2CCc3[nH]c4c(cnc5cc(Cl)ccc54)c3C2)cc1 [Example 5, 3-Chloro-8-(4-cyanobenzoyl)-8,9,10,11-tetrahydro-7H-pyrido[3',4':4,5]pyrrolo[3,2-c]quinoline]
inhibition at 10 µM [1]: 28%

Structure (SMILES): O=C(c1ccccc1)N1CCc2[nH]c3c(cnc4cc(Cl)ccc43)c2C1 [Example 6, 8-Benzoyl-3-Chloro-8,9,10,11-tetrahydro-7H-pyrido[3',4':4,5]pyrrolo[3,2-c]quinoline]
inhibition at 10 µM [1]: 57% | Inhibition of Bone Resorption, PTH-Induced (activity in words) [2]: Active at 10 μg/ml | Inhibition of Bone Resorption, IL-1 Induced (activity in words) [3]: Active at 5 μg/ml

Structure (SMILES): O=C(Nc1ccccc1)N1CCc2[nH]c3c(cnc4cc(Cl)ccc43)c2C1 [Example 7, 3-Chloro-7,9,10,11-tetrahydro-N-phenyl-8H-pyrido-[3',4':4,5]pyrrolo[3,2-c]quinoline-8-carboxamide]
inhibition at 10 µM [1]: 21%

Continued, in another order:

IC50 [3]: 1.96 µg/mL (≈ 5.4 µM)
Structure (SMILES): O=C(c1ccncc1)N1CCc2[nH]c3c(cnc4cc(Cl)ccc43)c2C1 [Example 8, 3-Chloro-8,9,10,11-tetrahydro-8-(4-pyridinylcarbonyl)-7H-pyrido[3',4':4,5]pyrrolo[3,2-c]quinoline]
inhibition at 10 µM [1]: 35% | Inhibition of Bone Resorption, PTH-Induced (activity in words) [2]: Active at 10 μg/ml | Inhibition of Bone Resorption, IL-1 Induced (activity in words) [3]: Active

IC50 [2]: 2.88 µg/mL (≈ 8.19 µM) | IC50 [3]: 0.307 µg/mL (≈ 0.873 µM)
Structure (SMILES): O=C(c1ccco1)N1CCc2[nH]c3c(cnc4cc(Cl)ccc43)c2C1 [Example 9, 3-Chloro-8-(2-furanylcarbonyl)-8,9,10,11-tetrahydro-7H-pyrido[3',4':4,5]pyrrolo[3,2-c]quinoline]
inhibition at 10 µM [1]: 36% | Inhibition of Bone Resorption, PTH-Induced (activity in words) [2]: Active | Inhibition of Bone Resorption, IL-1 Induced (activity in words) [3]: Active

IC50 [3]: 0.067 µg/mL (≈ 0.16 µM)
Structure (SMILES): O=C(c1cc2ccccc2s1)N1CCc2[nH]c3c(cnc4cc(Cl)ccc43)c2C1 [Example 10, 8-(Benzo[b]thien-2-ylcarbonyl)-3-chloro-8,9,10,11-tetrahydro-7H-pyrido[3',4':4,5]pyrrolo[3,2-c]quinoline]
inhibition at 10 µM [1]: 24% | Inhibition of Bone Resorption, IL-1 Induced (activity in words) [3]: Active

IC50 [2]: 0.144 µg/mL (≈ 0.357 µM) | IC50 [3]: 0.018 µg/mL (≈ 0.0446 µM)
Structure (SMILES): O=S(=O)(c1cccs1)N1CCc2[nH]c3c(cnc4cc(Cl)ccc43)c2C1 [Example 11, 3-Chloro-8,9,10,11-tetrahydro-8-(2-thienylsulfonyl)-7H-pyrido [3',4':4,5]pyrrolo[3,2-c]quinoline]
inhibition at 1 µM [1]: < 20% | Inhibition of Bone Resorption, PTH-Induced (activity in words) [2]: Active | Inhibition of Bone Resorption, IL-1 Induced (activity in words) [3]: Active

IC50 [2]: 0.274 µg/mL (≈ 0.725 µM) | IC50 [3]: 0.76 µg/mL (≈ 2.01 µM)
Structure (SMILES): O=C(Oc1ccccc1)N1CCc2[nH]c3c(cnc4cc(Cl)ccc43)c2C1 [Example 12, 3-Chloro-7,9,10,11-tetrahydro-8H-pyrido[3',4':4,5]pyrrolo-[3,2-c]quinoline-8-carboxylic Acid Phenyl Ester]
inhibition at 10 µM [1]: < 20% | Inhibition of Bone Resorption, PTH-Induced (activity in words) [2]: Active | Inhibition of Bone Resorption, IL-1 Induced (activity in words) [3]: Active
